Legend:
[1] = system: pilocarpine-induced seizures; test: pilocarpine model of (temporal lobe) epilepsy; assay type: in vivo
Experimental: Isolated CBD was injected intra-peritoneally (IP) in the standard vehicle (1:1:18 ethanol:Cremophor:0.9% w/v NaCl) at doses of 50, 100 and 200 mg/kg alongside animals that received vehicle alone at a matched volume. 15 minutes later methylscopolamine (1 mg/kg; to reduce peripheral muscarinic effects of pilocarpine) was administered followed, 45 minutes later by pilocarpine (380 mg/kg, IP) administration.

[2] = system: grand mal patients; conditions: 200-300 mg of cannabidiol plus regular medication; cited from earlier work
[3] = system: epileptic patients; conditions: 200-300 mg of cannabidiol per day in addition to standard antiepileptic drugs; 12 epileptic patients; cited from earlier work
[4] = system: seizure frequency in a single patient; conditions: 900-1200 mg of cannabidiol a day for 10 months; cited from earlier work
[5] = system: institutionalized children not responding to standard treatment; conditions: 5 institutionalized children not responding to phenobarbital and phenoytin; cited from earlier work
[6] = CBD 0 mg/kg, Phenobarbitol 10 mg/kg
[7] = CBD 0 mg/kg, Phenobarbitol 20 mg/kg
[8] = CBD 0 mg/kg, Phenobarbitol 40 mg/kg
[9] = significance of effect, pilocarpine model
[10] = CBD 100 mg/kg, Phenobarbitol 0 mg/kg

## CCC1(c2ccccc2)C(=O)NC(=O)NC1=O [Phenobarbitol, phenobarbital]
[1]; [6]
  Onset latency: 800 s
  Seizure free (%): 25%
[1]; [7]
  Onset latency: 900 s
  Seizure free (%): 55%
[1]; [8]
  Onset latency: 1800 s
  Seizure free (%): 75%

## CCCC(CCC)C(=O)O [Valproate, valproate]
[1]; [9]
  ALL EPISODES Mean duration of episodes: * (* = p < 0.05)
  ALL EPISODES Mean number of episodes: ** (** = p < 0.01)
  ALL EPISODES Mean severity of episodes: ** (** = p < 0.01)
  ALL EPISODES Mean time spent in episodes: * (* = p < 0.05)
  ALL EPISODES Percentage episode free: ** (** = p < 0.01)
  ALL EPISODES Percentage ≥3 episodes: # (# = p < 0.01)
  EPISODE 1 Latency: ** (** = p < 0.01)
  EPISODE 1 Severity: * (* = p < 0.05)
  EPISODE 2 Duration: # (# = p < 0.01)
  EPISODE 2 Latency: # (# = p < 0.01)

## C=C(C)[C@@H]1CCC(C)=C[C@H]1c1c(O)cc(CCCCC)cc1O [CBD, cannabidiol]
[1]; [10]
  Onset latency: 500 s
  Seizure free (%): 0%
[1]; [9]
  ALL EPISODES Mean severity of episodes: * (* = p < 0.05)
  EPISODE 2 Severity: * (* = p < 0.05)
[2]
  patients who remained unchanged: 1
  patients who showed complete improvement: 3
  patients who showed minor improvement: 2
  patients who showed partial improvement: 2
  unwanted effect: mild sedation
[3]
  improvement in seizure frequency: no significant improvement in seizure frequency
[4]
  seizure frequency: markedly reduced

## CCCCCc1cc(O)c2c(c1)OC(C)(C)[C@@H]1CCC(C)=C[C@@H]21 [THC, tetrahydrocannabinol]
[5]
  seizure outcome: One became entirely free of seizures, one became almost completely free of seizures, and the other three did no worse than before
